# Test results: patent US12077503B2, “Substituted cyclic amides and their use as herbicides” (FMC CORPORATION, priority 2015, dated 2024)
# What was measured:
# Format in all cases: in vivo
# [1] = test system: barnyardgrass (Echinochloa crus-galli); experiment: Test A preemergence; conditions: Echinochloa crus-galli, pre-emergence, 240 h
# How it was run: (§1)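 Visual injury, scored on a 0–100 scale relative to untreated controls, was recorded about 10 d after application. Treatments were a preemergence soil spray over planted seeds or a postemergence spray on plants at the one- to two-leaf stage, 2 to 10 cm tall, all in loam soil–sand blend in the greenhouse.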
# [2] = test system: ragweed (common ragweed, Ambrosia elatior); experiment: Test A preemergence; conditions: Ambrosia artemisiifolia, pre-emergence, 240 h
# How it was run: as §1
# [3] = test system: pigweed (Amaranthus retroflexus); experiment: Test A preemergence; conditions: Amaranthus retroflexus, pre-emergence, 240 h
# Kochia (Kochia scoparia) [4] = experiment: Test A preemergence; conditions: Bassia scoparia, pre-emergence, 240 h
# How it was run: as §1
# [5] = test system: giant foxtail (Setaria faberii); experiment: Test A preemergence; conditions: Setaria faberi, pre-emergence, 240 h
# How it was run: as §1
# [6] = test system: ryegrass, Italian (Italian ryegrass, Lolium multiflorum); experiment: Test A preemergence; conditions: Lolium multiflorum, pre-emergence, 240 h
# How it was run: as §1
# [7] = test system: Galium (catchweed bedstraw, Galium aparine); experiment: Test A postemergence; conditions: Galium, post-emergence, 240 h, postemergence, approx. 10 d
# How it was run: as §1
# [8] = test system: barnyardgrass (Echinochloa crus-galli); experiment: Test A postemergence; conditions: Echinochloa crus-galli, post-emergence, 240 h, read-out: Plant response rating, Barnyardgrass
# How it was run: as §1
# corn (Zea mays) = experiment: Test A postemergence; conditions: Zea mays, post-emergence, 240 h
# How it was run: as §1
# [9] = test system: ragweed (common ragweed, Ambrosia elatior); experiment: Test A postemergence; conditions: Ambrosia artemisiifolia, post-emergence, 240 h, 125 g ai/ha, postemergence; visual injury on 0 to 100 scale (0 no effect, 100 complete control), approx. 10 d; read-out: Ragweed plant response rating
# How it was run: as §1
# Kochia (Kochia scoparia) [10] = experiment: Test A postemergence; conditions: Bassia scoparia, post-emergence, 240 h, postemergence, approx. 10 d
# How it was run: as §1
# [11] = test system: wheat (Triticum aestivum); experiment: Test A postemergence; conditions: Triticum aestivum, post-emergence, 240 h, 125 g ai/ha, postemergence; visual injury on 0 to 100 scale (0 no effect, 100 complete control), approx. 10 d; read-out: Wheat plant response rating
# How it was run: as §1
# [12] = test system: blackgrass (Alopecurus myosuroides); experiment: Test A postemergence; conditions: Alopecurus myosuroides, post-emergence, 240 h, read-out: Plant response rating, Blackgrass
# How it was run: as §1
# [13] = test system: giant foxtail (Setaria faberii); experiment: Test A postemergence; conditions: Setaria faberi, post-emergence, 240 h, postemergence, approx. 10 d
# How it was run: as §1
# [14] = test system: ryegrass, Italian (Italian ryegrass, Lolium multiflorum); experiment: Test A postemergence; conditions: Lolium multiflorum, post-emergence, 240 h, 125 g ai/ha, postemergence; visual injury on 0 to 100 scale (0 no effect, 100 complete control), approx. 10 d; read-out: Ryegrass, Italian plant response rating
# How it was run: as §1
# [15] = 125 g ai/ha, Postemergence, visual injury after approximately 10 d, 0 to 100 scale where 0 is no effect and 100 is complete control
# [16] = 500 g ai/ha, postemergence, visual injury, 0 to 100 scale (0 no effect, 100 complete control), approx. 10 d
smiles,measurement,setting,value
Cc1ccc([C@H]2CN(C)C(=O)[C@@H]2C(=O)Nc2ccccc2F)cc1C [Compound 1038],pest or weed control at 125 g/ha,"[1]; 125 g ai/ha, Preemergence, visual injury rating after approximately 10 d, read-out: Barnyardgrass plant response rating (0 to 100 scale, 0 is no effect, 100 is complete control)",100%
same,pest or weed control at 500 g/ha,"[1]; 500 g ai/ha, preemergence, visual injury rating about 10 d after treatment, 0 to 100 scale (0 no effect, 100 complete control), read-out: Barnyardgrass plant response rating",100%
same,pest or weed control at 125 g/ha,"[2]; 125 g ai/ha, Preemergence, visual injury rating after approximately 10 d, read-out: Ragweed plant response rating (0 to 100 scale, 0 is no effect, 100 is complete control)",20%
same,pest or weed control at 500 g/ha,"[2]; 500 g ai/ha, preemergence, visual injury rating about 10 d after treatment, 0 to 100 scale (0 no effect, 100 complete control), read-out: Ragweed plant response rating",70%
same,pest or weed control at 125 g/ha,"[3]; 125 g ai/ha, Preemergence, visual injury rating after approximately 10 d, read-out: Pigweed plant response rating (0 to 100 scale, 0 is no effect, 100 is complete control)",20%
same,pest or weed control at 500 g/ha,"[3]; 500 g ai/ha, preemergence, visual injury rating about 10 d after treatment, 0 to 100 scale (0 no effect, 100 complete control), read-out: Pigweed plant response rating",30%
same,pest or weed control at 125 g/ha,"Kochia (Kochia scoparia) [4]; 125 g ai/ha, Preemergence, visual injury rating after approximately 10 d, read-out: Kochia plant response rating (0 to 100 scale, 0 is no effect, 100 is complete control)",80%
same,pest or weed control at 500 g/ha,"Kochia (Kochia scoparia) [4]; 500 g ai/ha, preemergence, visual injury rating about 10 d after treatment, 0 to 100 scale (0 no effect, 100 complete control), read-out: Kochia plant response rating",80%
same,pest or weed control at 125 g/ha,"[5]; 125 g ai/ha, Preemergence, visual injury rating after approximately 10 d, read-out: Foxtail, Giant plant response rating (0 to 100 scale, 0 is no effect, 100 is complete control)",100%
same,pest or weed control at 500 g/ha,"[5]; 500 g ai/ha, preemergence, visual injury rating about 10 d after treatment, 0 to 100 scale (0 no effect, 100 complete control), read-out: Foxtail, Giant plant response rating",100%
same,pest or weed control at 125 g/ha,"[6]; 125 g ai/ha, Preemergence, visual injury rating after approximately 10 d, read-out: Ryegrass, Italian plant response rating (0 to 100 scale, 0 is no effect, 100 is complete control)",30%
same,pest or weed control at 500 g/ha,"[6]; 500 g ai/ha, preemergence, visual injury rating about 10 d after treatment, 0 to 100 scale (0 no effect, 100 complete control), read-out: Ryegrass, Italian plant response rating",70%
same,pest or weed control at 125 g/ha,"[7]; 125 g ai/ha, visual injury on 0 to 100 scale (0 no effect, 100 complete control), read-out: Galium plant response rating",50%
same,pest or weed control at 500 g/ha,"[7]; 500 g ai/ha, visual injury, 0 to 100 scale (0 no effect, 100 complete control), read-out: Plant response rating, Galium",70%
same,pest or weed control at 125 g/ha,[8]; [15],90%
same,pest or weed control at 500 g/ha,[8]; [16],90%
same,"Corn plant response rating (crop injury, 0 = no effect, 100 = complete kill) at 125 g/ha",corn (Zea mays); [15],60%
same,"Corn plant response rating (crop injury, 0 = no effect, 100 = complete kill) at 500 g/ha",corn (Zea mays); [16],80%
same,pest or weed control at 125 g/ha,[9],0%
same,pest or weed control at 125 g/ha,"Kochia (Kochia scoparia) [10]; 125 g ai/ha, visual injury on 0 to 100 scale (0 no effect, 100 complete control), read-out: Kochia plant response rating",40%
same,pest or weed control at 500 g/ha,"Kochia (Kochia scoparia) [10]; 500 g ai/ha, visual injury, 0 to 100 scale (0 no effect, 100 complete control), read-out: Plant response rating, Kochia",80%
same,plant injury at 125 g/ha,[11],20%
same,pest or weed control at 125 g/ha,[12]; [15],30%
same,pest or weed control at 500 g/ha,[12]; [16],50%
same,pest or weed control at 125 g/ha,"[13]; 125 g ai/ha, visual injury on 0 to 100 scale (0 no effect, 100 complete control), read-out: Foxtail, Giant plant response rating",90%
same,pest or weed control at 500 g/ha,"[13]; 500 g ai/ha, visual injury, 0 to 100 scale (0 no effect, 100 complete control), read-out: Plant response rating, Foxtail, Giant",90%
same,pest or weed control at 125 g/ha,[14],20%
